Where two headings read alike, the source gives them in different places. Some results are limits rather than exact numbers.

The target of one test is NDM-1 (Klebsiella pneumoniae, UniProt C7C422). As to the kind of experiment: biochemical. The class given is biochemical. The note with it: read-out: NDM-1 IC50.
The next test concerns the target IMP-1 (Serratia marcescens, UniProt P52699). As to the kind of experiment: biochemical. The note with it: read-out: IMP-1 IC50. It counts as biochemical.
In another test the target is VIM-1 (Pseudomonas aeruginosa (strain ATCC 15692 / DSM 22644 / CIP 104116 / JCM 14847 / LMG 12228 / 1C / PRS 101 / PAO1), UniProt A0A0F7KYQ8). As to the kind of experiment: Enzyme activity: determination of IC50, fluorescence assay with CCF2-FA substrate (VIM-1). The class given is biochemical.
Test [1] relates to Escherichia coli expressing NDM-1 (CLB30016). As to the kind of experiment: Antibiotic potentiation activity: synergistic concentration (MITC95) with imipenem, OD600 growth. It counts as cell-based. The essentials:
(§1)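 In 1.1× CAMHB, clinical isolates from overnight plates were challenged with test compound alongside imipenem at an assay concentration of 4 μg/ml, sometimes 1 μg/ml. Plates sat covered at 35 °C for 22–24 h prior to spectrophotometric reading.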

In test [2] the test system is Klebsiella pneumoniae expressing VIM-1 (IHMA599644). Described as above. It counts as cell-based. In outline:
as §1

In test [3] the test system is Serratia marcescens expressing IMP-1 (CL5741). The description is as above. It counts as cell-based. The essentials:
as §1

Setting [4] is: NDM-1 enzyme, CCF2-FA substrate.
[5] abbreviates: IMP-1 enzyme, CCF2-FA substrate.
Where [6] appears, read: VIM-1 enzyme, CCF2-FA substrate, read-out: VIM-1 IC50.
[7] abbreviates: (CLB30016, NDM-1), 95% growth inhibition.
The mark [8] stands for this setting: Klebsiella pneumoniae IHMA599644 (VIM-1), 95% growth inhibition.
Where [9] appears, read: Serratia marcescens CL5741 (IMP-1), 95% growth inhibition.
The mark [10] stands for this setting: fluorescence assay with CCF2-FA substrate.
Setting [11] is: fluorescence assay with CCF2-FA substrate, read-out: VIM-1 IC50.
The mark [12] stands for this setting: concentration giving 95% inhibition of bacterial growth.

Chain of NDM-1 (C7C422 whole entry, looked up, species assumed): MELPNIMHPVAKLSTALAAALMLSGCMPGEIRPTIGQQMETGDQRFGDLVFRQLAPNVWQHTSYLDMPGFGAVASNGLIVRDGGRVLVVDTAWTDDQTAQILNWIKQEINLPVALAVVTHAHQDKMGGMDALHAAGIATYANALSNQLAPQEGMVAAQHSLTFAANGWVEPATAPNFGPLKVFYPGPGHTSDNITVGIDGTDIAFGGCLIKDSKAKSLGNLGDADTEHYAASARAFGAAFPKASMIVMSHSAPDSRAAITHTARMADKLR
Chain of IMP-1 (P52699 whole entry, looked up): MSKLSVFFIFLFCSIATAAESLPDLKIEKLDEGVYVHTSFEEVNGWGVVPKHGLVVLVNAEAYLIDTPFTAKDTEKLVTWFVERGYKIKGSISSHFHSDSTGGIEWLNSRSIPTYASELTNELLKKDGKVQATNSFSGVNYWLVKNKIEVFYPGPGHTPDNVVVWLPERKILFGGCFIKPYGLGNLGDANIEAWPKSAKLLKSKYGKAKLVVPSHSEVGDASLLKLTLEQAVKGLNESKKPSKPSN

Usually IC50 stands for the concentration that gives 50% inhibition. Regarding `NS(=O)(=O)c1cccc(-c2ccc(N3CCC(CO)C3)nc2)c1-c1nnn[nH]1` (stereo not drawn) [Example 622, 3-[6-[3-(hydroxymethyl)pyrrolidin-1-yl]-3-pyridyl]-2-(1H-tetrazol-5-yl)benzenesulfonamide], the values for the IC50 at NDM-1 (setting [4]), at IMP-1 (setting [5]) and on VIM-1 (setting [6]) were 4.39 nM, 85.6 nM and 142 nM, respectively. Besides, the “Escherichia coli MITC95” value in test [1] (setting [7]) came out at 0.9766 µM. In addition, the “Klebsiella pneumoniae MITC95” value in test [2] (setting [8]) was over 200 µM. For the same compound, the “Serratia marcescens MITC95” value in test [3] (setting [9]) is 6.25 µM.

`NS(=O)(=O)c1cccc(-c2ccc(CNCc3nn[nH]n3)cc2)c1-c1nnn[nH]1` [Example 381, 2-(1H-tetrazol-5-yl)-4′-{[(2H-tetrazol-5-ylmethyl)amino]methyl}biphenyl-3-sulfonamide]: the IC50 on NDM-1 (NDM-1 enzyme, CCF2-FA fluorescence assay) was found to be 2.25 nM; at IMP-1 (IMP-1 enzyme, CCF2-FA fluorescence assay), 25.4 nM; on VIM-1 (VIM-1 enzyme, CCF2-FA fluorescence assay, read-out: VIM-1 IC50), 357 nM. Moreover, the “Escherichia coli MITC95” value in test [1] (Escherichia coli expressing NDM-1 (CLB30016), 95% growth inhibition) amounted to 1.563 µM. The “Klebsiella pneumoniae MITC95” value in test [2] (Klebsiella pneumoniae expressing VIM-1 (IHMA599644), 95% growth inhibition) was 50 µM. Moreover, in test [3] (Serratia marcescens expressing IMP-1 (CL5741), 95% growth inhibition), the “Serratia marcescens MITC95” value came to 0.7813 µM.

Regarding `NS(=O)(=O)c1c(C(F)(F)F)ccc(N2CCC(N3CCNCC3)CC2)c1-c1nnn[nH]1` [Example 780, 3-(4-piperazin-1-yl-1-piperidyl)-2-(1H-tetrazol-5-yl)-6-(trifluoromethyl) benzenesulfonamide], the IC50 at NDM-1 (setting [10]) worked out at 17.7 nM; on IMP-1 (setting [10]) it was 31.7 nM; at VIM-1 (setting [11]), 0.274 nM. Moreover, the “Escherichia coli MITC95” value in test [1] (CLB30016 (NDM-1), 95% inhibition of bacterial growth) was 1.563 µM. For the same compound, in test [2] (IHMA599644 (VIM-1), 95% inhibition of bacterial growth), the “Klebsiella pneumoniae MITC95” value amounted to 2.344 µM. In addition, the “Serratia marcescens MITC95” value in test [3] (CL5741 (IMP-1), 95% inhibition of bacterial growth) turned out to be 1.563 µM.

For the compound `Cc1nnc2ccc(-c3cccc(S(N)(=O)=O)c3-c3nnn[nH]3)cn12` [Example 113, 3-(3-methyl-[1,2,4]triazolo[4,3-a]pyridin-6-yl)-2-(1H-tetrazol-5-yl)benzenesulfonamide], the results for the IC50 at NDM-1 (setting [10]), on IMP-1 (setting [10]) and at VIM-1 (setting [11]) were 15.4 nM, 14800 nM and 313 nM, respectively. In addition, the “Escherichia coli expressing NDM-1 (CLB 30016) MITC95” value in test [1] (setting [12]) stood at 3.125 µM. Also, the “Klebsiella pneumoniae expressing VIM-1 (IHMA 599644) MITC95” value in test [2] (setting [12]) came to 50 µM. Moreover, the “Serratia marcescens expressing IMP-1 (CL5741) MITC95” value in test [3] (setting [12]) was 200 µM.

`NS(=O)(=O)c1c(C(F)(F)F)ccc(-c2ccc(S(=O)(=O)CCO)cc2)c1-c1nnn[nH]1` [Example 742, 4′-[(2-hydroxyethyl)sulfonyl]-2-(1H-tetrazol-5-yl)-4-(trifluoromethyl)biphenyl-3-sulfonamide]: the IC50 came out at 2.01 nM at NDM-1 (setting [4]), 1.84 nM at IMP-1 (setting [5]) and 0.657 nM at VIM-1 (setting [6]). Also, in test [1] (setting [7]), the “Escherichia coli MITC95” value stood at 12.5 µM. The “Klebsiella pneumoniae MITC95” value in test [2] (setting [8]) came out at 25 µM. The “Serratia marcescens MITC95” value in test [3] (setting [9]) worked out at 12.5 µM.

Consider `Nc1nc(-c2ccc(-c3ccc(C(F)(F)F)c(S(N)(=O)=O)c3-c3nnn[nH]3)cc2)cs1` [Example 732, 4′-(2-amino-1,3-thiaozl-4-yl)-2-(1H-tetrazol-5-yl)-4-(trifluoromethyl)biphenyl-3-sulfonamide], for which the IC50 at NDM-1 (setting [4]) came to 0.534 nM; at IMP-1 (setting [5]), 0.384 nM; on VIM-1 (setting [6]), 0.69 nM. Also, the “Escherichia coli MITC95” value in test [1] (setting [7]) amounted to 0.7813 µM. In addition, in test [2] (setting [8]), the “Klebsiella pneumoniae MITC95” value is 25 µM. Besides, the “Serratia marcescens MITC95” value in test [3] (setting [9]) worked out at 3.125 µM.

Turning to `Nc1ncc(C#Cc2ccc(C(F)(F)F)c(S(N)(=O)=O)c2-c2nn[nH]n2)cc1CO` [Example 507, 3-((6-Amino-5-(hydroxymethyl)pyridin-3-yl)ethynyl)-2-(2H-tetrazol-5-yl)-6-(trifluoromethyl)benzenesulfonamide], the IC50 on NDM-1 (setting [4]) was determined as 11.5 nM; at IMP-1 (setting [5]) it was 4.31 nM; at VIM-1 (VIM-1 IC50, VIM-1 enzyme, CCF2-FA substrate) it was 3.27 nM. Besides, in test [1] (setting [7]), the “Escherichia coli MITC95” value was found to be 4.688 µM. In test [2] (setting [8]), the “Klebsiella pneumoniae MITC95” value was found to be 25 µM. Further, in test [3] (setting [9]), the “Serratia marcescens MITC95” value turned out to be 0.5859 µM.

The record behind these values is patent publication US9708336B2, “Metallo-beta-lactamase inhibitors” (priority 2014, dated 2017).
